Test results taken from publication PMC10449621, “Engineering cellular communication between light-activated synthetic cells and bacteria” (Nature Chemical Biology, 2023).
Where “and” joins values, the source holds several entries; their conditions need not be identical. Equal entries are not always repeated. Entries after “also recorded” stand apart in the source; their conditions may differ.

Columns and labels:
Type in all cases: cell-based, E. coli XL10-Gold
[1] = system: BjaRS107R (B0033|ATG) receiver cells; experiment: IV-HSL biosynthesis by BjaI-expressing synthetic cells (GUVs), quantified with receiver cells; settings: 10 nM IV-HSL control, Dilution -, sheet 4d
[2] = system: BjaRKO receiver cells (pSB1A3–bjaRKO–gfp); experiment: BjaR receiver cell AHSL dose-response (gfp reporter, plate reader)
Excerpt: (§1) Next, we set out to establish a unidirectional communication pathway by reconstituting the BjaI and BjaR QS machinery, separately, within synthetic cells and E. coli, respectively. As a starting point, IV-HSL-responsive receiver cells were created by transforming E. coli XL10-Gold cells with a reporter plasmid, pSB1A3–bjaR–gfp[28]. This plasmid contained a bjaR gene under the control of a constitutively active J23100 promoter and a gfp gene under the control of a pBjaR promoter. The pBjaR promoter was formed by substituting the lux-box of the pLux promoter with the BjaR-binding site (Supplementary Fig. 10). […] Although this reporter plasmid had been characterized previously, gfp expression was initiated with C4-HSL rather than the cognate ligand, IV-HSL. Thus, we first evaluated the dose–response relationship between synthetic IV-HSL (synthesis described in Methods) and GFP production by BjaR receiver cells. The cells were grown in M9 minimal media to an optical density at 600 nm (OD600) = 0.05, then transferred to a 96-well plate containing IV-HSL and incubated at 37 °C, 800 r.p.m., for 4 h. […] To elucidate the root cause of the high background fluorescence, a BjaRKO variant of the reporter plasmid was constructed. […] Therefore, the high OFF-state was attributed to BjaR-mediated transcription activation in the absence of IV-HSL, rather than host transcription factors recognizing the pBjaR promoter, or transcription factor independent gfp expression.
(§2) The BjaR reporter plasmids were retransformed into E. coli XL10-Gold cells for each experiment. A single colony was used to inoculate 5 ml LB + Amp media and incubated at 37 °C, 225 r.p.m. overnight. Overnight cultures were diluted 1/250 or 1/500 in 5 ml M9 minimal media + Amp and incubated at 37 °C, 225 r.p.m. for 3 h and 45 min (until OD600 = ~0.075). Cultures were diluted down to OD600 = 0.05 with M9 minimal media + Amp, and 200 µl was added to wells of a 96-well plate containing 1 µl IV-HSL dissolved in DMSO or 1 µl BjaI CFPS reactions (IV-HSL concentrations obtained from serial dilution from 63.2 µM to 632 pM; final DMSO concentration = 0.5%). Cells were incubated at 37 °C, 800 r.p.m., in a thermomixer with a heated lid for 4 h. Fluorescence and OD600 were measured in a Tecan M1000 infinite plate reader (excitation, 488 nm; emission, 510 nm; bandwidth, 5 nm; gain, 101 and z position, 21,311 µm). The dose–response curves were fitted to the function indicated by Eq. (1), where a = maximal fluorescence output, b = basal fluorescence output, X = concentration of AHSL, GFP = fluorescence at the given condition, EC50 = AHSL at 50% maximal fluorescence output and h = hill coefficient. EC50 and h were derived using the nonlinear regression model based on Eq. (1), in MATLAB. A summary of the dose–response data is available in Supplementary Table 1.1 GFP=b+a−b/1+10^logEC50−X×h

[3] = system: BjaRWT (B0034|ATG) receiver cells (pSB1A3–bjaR–gfp); experiment: as above
Excerpt: as §1, §2

## CC(C)CC(=O)N[C@H]1CCOC1=O [IV-HSL, N-isovaleryl-L-homoserine lactone]
[1]
  Mean normalised fluorescence: 190979
[1]; Expt1-3
  Normalised fluorescence: 175106 and 224036 and 173796
[1]; raw fluorescence ex 488/em 510 nm, Expt1-3
  GFP: 33963 and 48451 and 56546
[2]; BjaR knocked out
  gfp expression in presence of IV-HSL: completely ablated gfp expression; also recorded: minimal gfp expression
[2]; Log([ASHL]) -6.5
  GFP: 184 and 176 and 173
  Mean normalised fluorescence: 361.621
  Normalised fluorescence: 365.437 and 317.314 and 402.112
[2]; Log([ASHL]) -7
  GFP: 173 and 168 and 165
  Mean normalised fluorescence: 321.731
  Normalised fluorescence: 319.68 and 293.754 and 351.759
[2]; Log([ASHL]) -7.5
  GFP: 177 and 169 and 166
  Mean normalised fluorescence: 323.42
  Normalised fluorescence: 331.126 and 287.856 and 351.279
[2]; Log([ASHL]) -8
  GFP: 168 and 166 and 175
  Mean normalised fluorescence: 329.861
  Normalised fluorescence: 292.758 and 367.412 and 329.412
[2]; Log([ASHL]) -8.5
  GFP: 168 and 165 and 177
  Mean normalised fluorescence: 326.491
  Normalised fluorescence: 291.054 and 362.261 and 326.158
[2]; Log([ASHL]) -9
  GFP: 165 and 164 and 177
  Mean normalised fluorescence: 335.395
  Normalised fluorescence: 295.725 and 362.027 and 348.432
[2]; Log([ASHL]) -9.5
  GFP: 164 and 162 and 172
  Mean normalised fluorescence: 325.095
  Normalised fluorescence: 293.548 and 346.048 and 335.689
[2]; Log([ASHL]) -10
  GFP: 163 and 162 and 171
  Mean normalised fluorescence: 332.521
  Normalised fluorescence: 290.698 and 371.151 and 335.714
[2]; Log([ASHL]) -10.5
  GFP: 166 and 164 and 173
  Mean normalised fluorescence: 338.795
  Normalised fluorescence: 301.85 and 369.458 and 345.075
[2]; Log([ASHL]) -11
  GFP: 163 and 161 and 171
  Mean normalised fluorescence: 330.063
  Normalised fluorescence: 296.053 and 361.746 and 332.39
[2]; Log([ASHL]) -11.5
  GFP: 165 and 174 and 162
  Mean normalised fluorescence: 344.578
  Normalised fluorescence: 307.076 and 352.984 and 373.673
[3]; 4 h, 37 °C
  IV-HSL concentration at which gfp expression saturated: ~ 100 nM
  lowest IV-HSL concentration giving increased gfp expression: 100 pM
[3]; Escherichia coli, IV-HSL-activated gfp expression, M9 minimal media, 37 °C, 4 h
  EC50: 1 ± 0.11 nM
[3]; Log([ASHL]) -6.5
  GFP: 5520 and 5263 and 4853
  Mean normalised fluorescence: 51540.5
  Normalised fluorescence: 52896 and 49381.5 and 52343.9
[3]; Log([ASHL]) -7
  GFP: 4847 and 5318 and 4599
  Mean normalised fluorescence: 48761.2
  Normalised fluorescence: 46176.2 and 48745.4 and 51362.1
[3]; Log([ASHL]) -7.5
  GFP: 4806 and 4967 and 4256
  Mean normalised fluorescence: 50366.9
  Normalised fluorescence: 49622.2 and 48407.5 and 53071.1
[3]; Log([ASHL]) -8
  GFP: 4739 and 4412 and 4755
  Mean normalised fluorescence: 51222.6
  Normalised fluorescence: 48553.6 and 53423.6 and 51690.6
[3]; Log([ASHL]) -8.5
  GFP: 4235 and 3971 and 4223
  Mean normalised fluorescence: 46308.3
  Normalised fluorescence: 43174.3 and 50090 and 45660.8
[3]; Log([ASHL]) -9
  GFP: 3046 and 2749 and 2957
  Mean normalised fluorescence: 32989.1
  Normalised fluorescence: 31098.3 and 35762 and 32107
[3]; Log([ASHL]) -9.5
  GFP: 2089 and 1773 and 1816
  Mean normalised fluorescence: 20544.4
  Normalised fluorescence: 19459.5 and 23021.7 and 19152
[3]; Log([ASHL]) -10
  GFP: 1495 and 1301 and 1477
  Mean normalised fluorescence: 15546.1
  Normalised fluorescence: 14827.9 and 16425.7 and 15384.6
[3]; Log([ASHL]) -10.5
  GFP: 1424 and 1254 and 1414
  Mean normalised fluorescence: 15128.3
  Normalised fluorescence: 14176.3 and 15945.9 and 15262.6
[3]; Log([ASHL]) -11
  GFP: 1414 and 1258 and 1391
  Mean normalised fluorescence: 15383.1
  Normalised fluorescence: 14419.4 and 15744.7 and 15985.4
[3]; Log([ASHL]) -11.5
  GFP: 1447 and 1104 and 1274
  Mean normalised fluorescence: 15262.1
  Normalised fluorescence: 15049.3 and 14629.6 and 16107.4
